The values below come from US10947196B2, “Beta adrenergic agonist and methods of using the same” (CURASEN THERAPEUTICS, INC., priority 2019, dated 2021).

Read-outs that look alike come from different tables or passages of the source.

Data set [1] has as its target β2 adrenergic receptors in human astrocytoma cells (1321N1) (Homo sapiens (Human), UniProt P07550). Kind of data set: cAMP HTRF assay in human astrocytoma cells (1321N1). Type of data set: cell-based. The conditions noted are these: Endogenous receptor, 1321N1 cells. In short, it runs like this: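 Intracellular cAMP quantified by Eu-donor/d2-acceptor HTRF after 30 min compound exposure at 37° C in stimulation buffer with IBMX. Concentrations ran 10 μM top, 5-fold steps, 10 points. Cell lines: 1321N1 astrocytoma and CHO expressing β1 or β2; EC50 via four-parameter fit, relative efficacy against isoproterenol.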
Background: TR-FRET usually uses a lanthanide donor and a delayed reading to cut background.

Data set [2] in a line: Hepatocyte stability (monkey). Type of data set: in vitro ADME. The conditions noted are these: 0.5×10^6 viable cells/mL. As to the method:
10 mM and 100 μM stock solutions of test compound(s) and a positive control were prepared in appropriate solvent (DMSO). In separate conical tubes, the 10 mM test compound and the positive control were diluted to 100 μM by combining 198 μL of 50% acetonitrile/50% water and 2 μL of 10 mM stock. The 100 μM test compound and the positive control were diluted to 30 μM by combining 140 μL of 50% acetonitrile/50% water and 60 μL of 100 μM stock solution. The 100 μM test compound and the positive control were diluted to 10 μM by combining 180 μL of 50% acetonitrile/50% water and 20 μL of 100 μM stock solution. The 100 μM test compound and the positive control were diluted to 3 μM by combining 194 μL of 50% acetonitrile/50% water and 6 μL of 100 μM stock solution.
Incubation medium (William's E Medium supplemented with GlutaMAX) and hepatocyte thawing medium was placed in a 37° C. water bath, and allowed to warm for at least 15 minutes prior to use. […]
Using AOPI staining solution, cells were counted and the viable cell density was determined. […]
All calculations were carried out using Microsoft Excel. Peak areas were determined from extracted ion chromatograms. […]
The in vitro half-life (in vitro t1/2) was determined from the slope value: in vitro t1/2=0.693/k

Chain of β2 adrenergic receptors in human astrocytoma cells (1321N1) (P07550 whole entry): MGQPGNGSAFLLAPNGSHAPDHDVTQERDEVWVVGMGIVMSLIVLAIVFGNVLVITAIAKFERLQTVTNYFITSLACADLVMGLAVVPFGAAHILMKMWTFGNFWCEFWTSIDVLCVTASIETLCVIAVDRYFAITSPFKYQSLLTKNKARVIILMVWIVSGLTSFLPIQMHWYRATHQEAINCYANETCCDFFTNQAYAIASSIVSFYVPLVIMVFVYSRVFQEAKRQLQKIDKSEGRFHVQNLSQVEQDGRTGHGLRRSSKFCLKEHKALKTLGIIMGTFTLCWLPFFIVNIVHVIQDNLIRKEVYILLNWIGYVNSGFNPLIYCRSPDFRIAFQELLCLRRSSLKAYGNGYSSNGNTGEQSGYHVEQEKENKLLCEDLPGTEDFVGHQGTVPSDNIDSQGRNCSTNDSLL

As for `Cc1ncccc1[C@@H](O)CNC(C)(C)C` [Compound 03-115], in data set [1] (read-out: Average pEC50 [Receptor subtype: Endogenous, Cell type: 1321N1] (converted)), the EC50 was 100 to 1000 nM. For the same compound, the “Hepatocyte stability, Monkey” value in data set [2] is listed as 1.26 μL/min/10^6 cells.
Regarding `CC(C)(C)NC[C@H](O)c1cccc(C#N)n1` [Compound 03-5, (S)-6-(2-(tert-butylamino)-1-hydroxyethyl)picolinonitrile], the “Average pEC50 [Receptor subtype: Endogenous; Cell type: 1321N1]” value in data set [1] is recorded as “C-B”. The EC50 in data set [1] (read-out: Average EC50 [Receptor subtype: Endogenous, Cell type: 1321N1]) was 10 to 100 nM. Moreover, in data set [2], the “Hepatocyte stability, Monkey” value turned out to be 1.88 μL/min/10^6 cells.
